Laboratory results: patent publication US20050214336A1, “Parasite control in animals” (priority 2002, published 2005)

Test system: Musca domestica first instars
Assay: Development of Musca domestica larvae on cattle dung following oral treatment of the animal (feed-through test)
Type: in vivo
Settings: cattle 300 kg, 3 g active compound in capsule on three consecutive days, dung samples
Description: Test for the development of Musca domestica larvae on cattle dung following oral treatment of the animal with active-compound-comprising formulation (feed-through test) Cattle 300 kg in weight are fed on three consecutive days with in each case 3 g of active compound in a capsule formulation. Dung samples of treated animals are populated with Musca domestica first instars, and the development into adult flies was monitored in comparison with the development of dung samples of an untreated control. Those substances which reliably prevent the development of adults over a period of four weeks are assessed as active.

With CCC(C)(C)C(=O)OC1=C(c2ccc(Cl)cc2Cl)C(=O)OC12CCCCC2 [compound A, 2,2-dimethyl-, 3-(2,4-dichlorophenyl)-2-oxo-1-oxaspiro[4,5]dec-3-en-4-yl-butanoate] the “long-term activity (prevention of development into adult flies)” value (after day 3, long-term (period of four weeks)) was 100% and the “activity (prevention of development into adult flies)” value (up to day 3 after the treatment) was 50%.
